Assay results reported in PubChem BioAssay AID248 (DTP/NCI, 2004).
Where “and” joins values, the source holds several entries; their conditions need not be identical. Identical values can stand only once. Inconclusive results and toxic doses are left out. Rule as the data show it: active = T/C of 150% or more; inactive = T/C below 125%.

Tested on: L1210 leukemia ip in BDF1 mice, survival T/C
Experiment: NCI In Vivo Anticancer Drug Screen. Data for tumor model L1210 Leukemia (intraperitoneal) in B6D2F1 (BDF1) mice
Settings: endpoint: mean survival time, higher = longer survival
In short: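 Ratio derived from survival: compound-dosed mice over vehicle-dosed mice, all bearing a transplantable tumor.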

[1] = dose: 100.0 mg/kg/injection, schedule: Q01DX001 (ip), vehicle: saline
[2] = dose: 200.0 mg/kg/injection, schedule: Q01DX001 (ip), vehicle: saline
[3] = dose: 400.0 mg/kg/injection, schedule: Q01DX001 (ip), vehicle: saline
[4] = dose: 100.0 mg/kg/injection, schedule: Q01DX009 (ip), vehicle: Klucel (hydroxypropylcellulose) (HPC)
[5] = dose: 200.0 mg/kg/injection, schedule: Q01DX009 (ip), vehicle: Klucel (hydroxypropylcellulose) (HPC)
[6] = dose: 400.0 mg/kg/injection, schedule: Q01DX009 (ip), vehicle: Klucel (hydroxypropylcellulose) (HPC)
[7] = dose: 100.0 mg/kg/injection, schedule: Q04DX003 (ip), vehicle: saline
[8] = dose: 200.0 mg/kg/injection, schedule: Q04DX003 (ip), vehicle: saline
[9] = dose: 25.0 mg/kg/injection, schedule: Q04DX003 (ip), vehicle: saline with Tween-80
[10] = dose: 100.0 mg/kg/injection, schedule: Q04DX003 (ip), vehicle: Klucel (hydroxypropylcellulose) (HPC)
[11] = dose: 200.0 mg/kg/injection, schedule: Q04DX003 (ip), vehicle: Klucel (hydroxypropylcellulose) (HPC)
[12] = dose: 400.0 mg/kg/injection, schedule: Q04DX003 (ip), vehicle: Klucel (hydroxypropylcellulose) (HPC)
[13] = dose: 100.0 mg/kg/injection, schedule: Q01DX009 (ip), vehicle: saline
[14] = dose: 200.0 mg/kg/injection, schedule: Q01DX009 (ip), vehicle: saline
[15] = dose: 400.0 mg/kg/injection, schedule: Q01DX009 (ip), vehicle: saline
[16] = dose: 100.0 mg/kg/injection, schedule: Q04DX003 (ip), vehicle: saline with Tween-80
[17] = dose: 200.0 mg/kg/injection, schedule: Q04DX003 (ip), vehicle: saline with Tween-80
[18] = dose: 400.0 mg/kg/injection, schedule: Q04DX003 (ip), vehicle: saline with Tween-80
[19] = dose: 100.0 mg/kg/injection, schedule: Q01DX009 (ip), vehicle: saline with Tween-80
[20] = dose: 200.0 mg/kg/injection, schedule: Q01DX009 (ip), vehicle: saline with Tween-80
[21] = dose: 400.0 mg/kg/injection, schedule: Q01DX009 (ip), vehicle: saline with Tween-80

Measured: T/C

COC(=O)C1(C)COP(=O)(Nc2ccc(Br)cc2)OC1 (centres undefined)
inactive: [1] 96 % of control | [2] 86 % of control | [3] 91 % of control

CSc1n[n+](-c2ccccc2)cs1
inactive: [1] 103 % of control | [2] 103 % of control | [3] 100 % of control

CC(=O)OC(C)c1ccccc1 (centres undefined)
inactive: [4] 112 % of control | [5] 106 % of control | [6] 101 % of control

O=C(O)CCCN1C/C(=C\c2ccc(Cl)cc2)C(=O)C1=O
inactive: [1] 97 % of control | [7] 98 % of control | [2] 102 % of control | [8] 98 % of control | [3] 107 % of control | dose: 400.0 mg/kg/injection, schedule: Q04DX003 (ip), vehicle: saline 96 % of control

OC(CN1CCCCC1)c1ccc(/C=C/c2ccc(Cl)cc2)cc1 (centres undefined)
inactive: dose: 6.25 mg/kg/injection, schedule: Q01DX009 (ip), vehicle: saline with Tween-80 101 % of control | dose: 6.25 mg/kg/injection, schedule: Q04DX003 (ip), vehicle: saline with Tween-80 93 % of control | dose: 12.5 mg/kg/injection, schedule: Q01DX009 (ip), vehicle: saline with Tween-80 93 % of control | dose: 12.5 mg/kg/injection, schedule: Q04DX003 (ip), vehicle: saline with Tween-80 88 % of control | [9] 98 % of control and 87 % of control | dose: 100.0 mg/kg/injection, schedule: Q01DX001 (ip), vehicle: saline with Tween-80 88 % of control

CC(C)CNS(=O)(=O)c1ccc(Cl)c([N+](=O)[O-])c1
inactive: [10] 99 % of control | [11] 97 % of control | [12] 106 % of control

C=CCc1ccc(OC(=O)Nc2ccccc2C)c(OC)c1
inactive: [4] 96 % of control | [5] 95 % of control

[I][Hg][I].c1ccc(P(N2CCCCC2)N2CCCCC2)cc1
inactive: [4] 102 % of control | [5] 97 % of control | [6] 97 % of control

CCOC(=O)C(OC(=O)c1ccccc1)(OC(=O)c1ccccc1)C(=O)OCC
inactive: [1] 101 % of control | [2] 93 % of control

CC(=O)OI(OC(C)=O)c1cccc(C)c1
inactive: [4] 96 % of control | [5] 96 % of control

Cc1ccc(N=Nc2ccc(C)cc2NC(=O)Nc2ccccc2C(F)(F)F)cc1
inactive: [4] 92 % of control | [5] 90 % of control | [6] 90 % of control

CCN(CCNC(C)(C)[P+](=O)O)c1ccccc1
inactive: dose: 75.0 mg/kg/injection, schedule: Q04DX003 (ip), vehicle: Klucel (hydroxypropylcellulose) (HPC) 100 % of control | [1] 105 % of control | dose: 150.0 mg/kg/injection, schedule: Q04DX003 (ip), vehicle: Klucel (hydroxypropylcellulose) (HPC) 96 % of control | [2] 105 % of control | dose: 300.0 mg/kg/injection, schedule: Q04DX003 (ip), vehicle: Klucel (hydroxypropylcellulose) (HPC) 110 % of control | [3] 102 % of control

O=C(COc1cc2ccccc2cc1C(=O)O)NCc1ccc(Cl)cc1
inactive: dose: 25.0 mg/kg/injection, schedule: Q04DX003 (ip), vehicle: saline 96 % of control | dose: 50.0 mg/kg/injection, schedule: Q04DX003 (ip), vehicle: saline 100 % of control | [7] 101 % of control | [8] 101 % of control

CC(C)OCCCO
inactive: [13] 87 % of control | [14] 92 % of control | [15] 97 % of control

O=C1CCC(=O)N1CCC(=O)N(C(=O)NC1CCCCC1)C1CCCCC1
inactive: dose: 50.0 mg/kg/injection, schedule: Q01DX009 (ip), vehicle: saline 98 % of control | [13] 95 % of control | [16] 100 % of control | [14] 101 % of control | [17] 106 % of control | [15] 98 % of control | [18] 100 % of control

N#CC1CC(c2ccccc2)Nc2ccccc2N1 (centres undefined)
inactive: [10] 94 % of control | [11] 98 % of control | [12] 96 % of control

O=C(O)C12C3(Cl)C4(Cl)C5(OCCO5)C5(Cl)C3(Cl)C1(Cl)C5(Cl)C42Cl (centres undefined)
inactive: dose: 50.0 mg/kg/injection, schedule: Q01DX001 (ip), vehicle: saline 105 % of control | [1] 102 % of control | [2] 100 % of control

Cc1nn2c(=O)[nH]cnc2c1Cl
inactive: [19] 108 % of control | [16] 91 % of control | [20] 108 % of control | [17] 89 % of control | [21] 105 % of control | [18] 92 % of control

O=C(Nc1ccccc1)Nc1ccc(F)cc1
inactive: [19] 100 % of control | [16] 101 % of control | [20] 94 % of control | [17] 99 % of control | [21] 96 % of control | [18] 105 % of control

CC(C)(C)N1CCOCC1
inactive: dose: 25.0 mg/kg/injection, schedule: Q01DX009 (ip), vehicle: acetone 91 % of control | dose: 50.0 mg/kg/injection, schedule: Q01DX009 (ip), vehicle: acetone 92 % of control | dose: 100.0 mg/kg/injection, schedule: Q01DX009 (ip), vehicle: acetone 87 % of control

COc1ccc(O)c(CC(C)C)c1
inactive: dose: 100.0 mg/kg/injection, schedule: Q04DX003 (ip), vehicle: acetone 96 % of control | dose: 200.0 mg/kg/injection, schedule: Q04DX003 (ip), vehicle: acetone 102 % of control | dose: 400.0 mg/kg/injection, schedule: Q04DX003 (ip), vehicle: acetone 93 % of control

N#CSCCSC#N
inactive: dose: 10.0 mg/kg/injection, schedule: Q04DX003 (ip), vehicle: Klucel (hydroxypropylcellulose) (HPC) 99 % of control

COc1ccc(/C(N=Nc2ccccc2)=N/N=C(N)N)cc1
inactive: dose: 20.0 mg/kg/injection, schedule: Q01DX001 (ip), vehicle: steriod suspending solution 105 % of control | dose: 40.0 mg/kg/injection, schedule: Q01DX001 (ip), vehicle: steriod suspending solution 94 % of control | dose: 80.0 mg/kg/injection, schedule: Q01DX001 (ip), vehicle: steriod suspending solution 96 % of control

C=C(C)CC(N)Cc1ccccc1 (centres undefined)
inactive: dose: 50.0 mg/kg/injection, schedule: Q04DX002 (ip), vehicle: saline with Tween-80 89 % of control | dose: 100.0 mg/kg/injection, schedule: Q04DX002 (ip), vehicle: saline with Tween-80 95 % of control and 103 % of control

COc1ccccc1-n1c(=O)c(N=Nc2ccccc2C)c(O)n(-c2ccccc2C)c1=S
inactive: dose: 37.5 mg/kg/injection, schedule: Q01DX001 (ip), vehicle: Klucel (hydroxypropylcellulose) (HPC) 106 % of control | dose: 75.0 mg/kg/injection, schedule: Q01DX001 (ip), vehicle: Klucel (hydroxypropylcellulose) (HPC) 106 % of control | dose: 150.0 mg/kg/injection, schedule: Q01DX001 (ip), vehicle: Klucel (hydroxypropylcellulose) (HPC) 108 % of control

OC(c1ccccc1)(c1ccccc1)C1c2ccccc2-c2[nH]c3ccccc3c21 (centres undefined)
inactive: dose: 200.0 mg/kg/injection, schedule: Q01DX001 (ip), vehicle: saline with Tween-80 91 % of control

CSC(Cl)=C(Cl)Cl
inactive: [9] 101 % of control | dose: 50.0 mg/kg/injection, schedule: Q04DX003 (ip), vehicle: saline with Tween-80 101 % of control | [1] 90 % of control | [16] 97 % of control

O=S(=O)(c1cc(Br)ccc1O)c1cc(Br)ccc1O
inactive: [1] 97 % of control | dose: 100.0 mg/kg/injection, schedule: Q04DX002 (ip), vehicle: gum acacia 93 % of control | [2] 95 % of control | dose: 200.0 mg/kg/injection, schedule: Q04DX002 (ip), vehicle: gum acacia 93 % of control | [3] 103 % of control | dose: 400.0 mg/kg/injection, schedule: Q04DX002 (ip), vehicle: gum acacia 93 % of control

Nc1nc(N)c(C=Nc2ccc(I)cc2)c(Nc2ccc(I)cc2)n1
inactive: dose: 400.0 mg/kg/injection, schedule: Q01DX001 (ip), vehicle: alcohol 86 % of control

O=CO
inactive: [1] 100 % of control | [2] 98 % of control | [3] 93 % of control
